Reference: patent US11597917B2, “In vitro and in vivo enrichment strategy targeting lymphocytes derived from vector transduced HSCs for therapy of disorders” (THE MEDICAL COLLEGE OF WISCONSIN, INC., priority 2017, dated 2023)

Experiments:
Fabry mice = assay: In vivo enrichment in Fabry mice engrafted with transduced HSPCs: observation of toxicities; settings: 0.15% MMF medicated chow ad libitum, 2 months of treatment
Protocol: Briefly, male and female Fabry mice aged 2-5 months of age are treated with 5-fluorouracil (5-FU) to deplete bone marrow cells and enrich for HSPCs. Four days after treatment these mice are euthanized, and bone marrow is isolated from femurs and tibia, and processed for transduction. Cells are cultured in stem cell media and transduced using lentivirus described above for 12 hours at a multiplicity of infection (MOI) of 10. Transduced cells are then harvested and prepared for administration to recipient mice. Recipients are male Fabry mice aged approximately 2 months. These are irradiated prior to engrafting transduced cells to deplete their own hematopoietic system. Some cells are retained in culture for an extra 48 hours to assay transduction. Mice are kept on prophylactic antibiotics as support during immune recovery. Engraftment of transduced cells is assessed by measuring VCN/genome in circulation using a qPCR-based assay and comparing to a standard curve, and by measuring plasma α-gal A activity. MMF medicated chow may be started after stable engraftment has been achieved, typically after 4 months. […] A baseline bleed was done to confirm engraftment and the mice were given 0.15% MMF capsule (TEVA generics, Israel) medicated chow ad libitum, and bled every 15 days to observe changes in plasma α-gal A activity, which is a measure of enrichment. […]

Jurkat cells [1] = assay: Glucocerebrosidase activity in supernatant of transduced Jurkat cells after MPA enrichment (fluorometric assay); type: cell-based; settings: cells transduced with GBA+(IY) virus and treated with MPA (0.5 μM, 16 days); FIG. 13
Protocol: Jurkat cells were transduced with lentivirus at an MOI of ˜0.1-0.2. Cells were cultured for at least 2 weeks prior to measuring baseline vector copy number. Cell lines for each of LV/GBA+eGFP and LV/GBA+(IY), or non-transduced cells were produced in this way. To measure enrichment, testing was carried out as described in Example 2. Briefly, cells at known densities were seeded in quadruplicate for each cell line, and maintained in culture for 16 days with either vehicle (DMSO) or 0.5 μM MPA, with media being replaced every two days. After treatment, cells were diluted and recovered for 4-8 days. gDNA was extracted from cells sampled from each well, and vector copy number analyses were carried out using qPCR. Cells from each well were also seeded at known and equal densities for 72 hours, after which supernatant was collected, cleared of cells and debris, and glucocerebrosidase activity measured using a fluorometric assay. Briefly, supernatants were incubated for 1 hour with substrate solution containing 4-methylumbelliferyl-beta-D-glucopyranoside (15 mM). The reaction was quenched with 0.1M glycine at pH 10 and fluorescence of the reaction product quantified against a calibration curve of the product.

Jurkat cells [2] = assay: In vitro enrichment of transduced Jurkat cells with MPA: vector copy number per genome by qPCR; type: cell-based; settings: Jurkat cells transduced with dual promoter vector; 0.5 μM MPA vs DMSO, 16 days; FIG. 4C
Protocol: (§1) In this Example, Jurkat cells (immortalized T cells) are used. […] 3 cell lines were generated by transducing Jurkat cells with the vectors described or with protamine sulphate only as a mock. VCN/genome was adjusted by dilution of the transduced cells with mock transduced cells. Each of these were seeded in 4 replicates and either treated with DMSO (vehicle) or 0.5 μM MPA. Fresh media with drug or vehicle was added after centrifuging the cells and discarding old media every two days. Samples were taken for cell counts. After 16 days of treatment, cells were reseeded for recovery in fresh media for a total of four days, after which they were counted and reseeded again for two days for α-gal A activity assay or one day for gDNA.
VCN was determined by comparison to a standard curve using a qPCR based method and normalized to the number of beta actin (ACTB) copies to determine a per genome value. Patterned bars in the chart refer to samples treated with DMSO and solid bars refer to those treated with MPA.

Jurkat cells [3] = assay: α-gal A activity (4-MUG substrate) in lysates and supernatants of transduced Jurkat cells after MPA enrichment; type: cell-based; settings: Jurkat cells transduced with dual promoter vector; 0.5 μM MPA, 16 days, then recovery; FIGS. 4E and 4F
Protocol: as §1

SMILES | drug-related toxicities (Fabry mice) | enzyme activity in cell culture supernatant (Jurkat cells [1]) | increase in the vector copy number of the total population per genome (Jurkat cells [2]) [fold] | α-gal A activity in cell lysates and culture supernatants (Jurkat cells [3])
COc1c(C)c2c(c(O)c1C/C=C(\C)CCC(=O)OCCN1CCOCC1)C(=O)OC2 [MMF, mycophenolate mofetil] | No drug-related toxicities were observed | – | – | –
COc1c(C)c2c(c(O)c1C/C=C(\C)CCC(=O)O)C(=O)OC2 [MPA, mycophenolic acid] | – | increased enzyme activity | ~8 | corresponding increase in α-gal A activity
